The values that follow come from patent US20160297833A1, “THIENOPYRIMIDINES AS MKNK1 AND MKNK2 INHIBITORS” (BAYER PHARMA AKTIENGESELLSCHAFT, priority 2013, published 2016).

The target of the experiment is T1, human full-length MKNK1 (Homo sapiens, UniProt Q9BUB5, T385D).
T1 construct: GST (N); purchased Carna Biosciences 02-145; host or cells: insect cells (baculovirus expression system)
T1 sequence (Q9BUB5 1-424 isoform Q9BUB5-2 T344D): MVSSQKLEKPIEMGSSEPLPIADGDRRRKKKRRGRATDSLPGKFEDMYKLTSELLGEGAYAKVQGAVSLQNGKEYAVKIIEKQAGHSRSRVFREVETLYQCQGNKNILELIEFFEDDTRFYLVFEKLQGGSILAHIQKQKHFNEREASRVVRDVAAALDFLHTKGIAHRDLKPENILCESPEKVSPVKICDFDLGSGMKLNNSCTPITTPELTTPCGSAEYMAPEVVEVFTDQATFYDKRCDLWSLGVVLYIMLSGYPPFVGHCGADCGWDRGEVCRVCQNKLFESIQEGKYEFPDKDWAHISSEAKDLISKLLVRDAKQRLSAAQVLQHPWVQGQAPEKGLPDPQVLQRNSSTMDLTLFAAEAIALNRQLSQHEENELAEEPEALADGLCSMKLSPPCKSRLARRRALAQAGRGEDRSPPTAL
Nature of the experiment: MKNK1 kinase high ATP assay (TR-FRET). Format: biochemical. Conditions: Table 1; MKNK1 kinase high ATP assay, 2 mM ATP; read-out: MKNK1 IC50. Summed up: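 Full-length human MKNK1 (T385D) preincubated 15 min at 22 °C with compound in HEPES pH 7.5/MgCl2/DTT buffer; reaction with 2 mM ATP (final) and 0.06 μM biotinylated peptide (final), 30 min at 22 °C.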
Usually IC50 stands for the midpoint of a concentration-inhibition curve. For the molecule `C[C@@H]1COCCN1C(=O)[C@H]1CCc2c(sc3ncnc(Nc4cc5cn[nH]c5cc4N4CCCC4)c23)C1` [Example 184, [(3R)-3-Methylmorpholin-4-yl][(7S)-4-{[6-(pyrrolidin-1-yl)-1H-indazol-5-yl]amino}-5,6,7,8-tetrahydro[1]benzothieno[2,3-d]pyrimidin-7-yl]methanone], the IC50 came out at 400 pM. As for `C[C@H]1COCCN1C(=O)[C@H]1CCc2c(sc3ncnc(Nc4cc5cn[nH]c5cc4OC4CN(C(=O)OC(C)(C)C)C4)c23)C1` [Example 267, tert-Butyl 3-[(5-{[(7S)-7-{[(3S)-3-methylmorpholin-4-yl]carbonyl}-5,6,7,8-tetrahydro[1]benzothieno[2,3-d]pyrimidin-4-yl]amino}-1H-indazol-6-yl)oxy]azetidine-1-carboxylate], the concentration for half-maximal inhibition (IC50) is 300 pM.

As for `COc1cc2[nH]ncc2cc1Nc1ncnc2sc3c(c12)CC[C@H](C(=O)N(CCCN(C)C)Cc1ccccc1)C3` [Example 63, (7S)—N-Benzyl-N-[3-(dimethylamino)propyl]-4-[(6-methoxy-1H-indazol-5-yl)amino]-5,6,7,8-tetrahydro[1]benzothieno[2,3-d]pyrimidine-7-carboxamide], the IC50 turned out to be 200 pM. For the molecule `CCOC(=O)NC[C@@H](C)Oc1cc2[nH]ncc2cc1Nc1ncnc2sc3c(c12)CC[C@H](C(=O)N(C)C)C3` [Example 263, Ethyl {(2R)-2-[(5-{[(7S)-7-(dimethylcarbamoyl)-5,6,7,8-tetrahydro[1]benzothieno[2,3-d]pyrimidin-4-yl]amino}-1H-indazol-6-yl)oxy]propyl}carbamate], the 50% inhibitory concentration (IC50) was 1600 pM. `CCOc1cc2[nH]ncc2cc1Nc1ncnc2sc3c(c12)CC[C@H](C(=O)N(C)CC(F)F)C3` [Example 65, (7S)—N-(2,2-Difluoroethyl)-4-[(6-ethoxy-1H-indazol-5-yl)amino]-N-methyl-5,6,7,8-tetrahydro[1]benzothieno[2,3-d]pyrimidine-7-carboxamide]: the IC50 was found to be 600 pM. As to `CCN(C(=O)[C@H]1CCc2c(sc3ncnc(Nc4cc5cn[nH]c5cc4OC(C)C)c23)C1)C(C)C` [Example 80, (7S)—N-Ethyl-N-(propan-2-yl)-4-{[6-(propan-2-yloxy)-1H-indazol-5-yl]amino}-5,6,7,8-tetrahydro[1]benzothieno[2,3-d]pyrimidine-7-carboxamide], the IC50 is 300 pM. `CCN(CCN(C)C)C(=O)[C@H]1CCc2c(sc3ncnc(Nc4cc5cn[nH]c5cc4OC)c23)C1` [Example 53, (7S)—N-[2-(Dimethylamino)ethyl]-N-ethyl-4-[(6-methoxy-1H-indazol-5-yl)amino]-5,6,7,8-tetrahydro[1]benzothieno[2,3-d]pyrimidine-7-carboxamide]: the concentration for half-maximal inhibition (IC50) stood at 300 pM.

Regarding `COc1cc2[nH]ncc2cc1Nc1ncnc2sc3c(c12)CC[C@H](C(=O)N(C)CCN(C)C)C3` [Example 51, (7S)—N-[2-(Dimethylamino)ethyl]-4-[(6-methoxy-1H-indazol-5-yl)amino]-N-methyl-5,6,7,8-tetrahydro[1]benzothieno[2,3-d]pyrimidine-7-carboxamide], the IC50 was found to be 100 pM. The figure for `COc1cc2[nH]ncc2cc1Nc1ncnc2sc3c(c12)CC[C@H](C(=O)N(CCC(=O)N(C)C)C1CC1)C3` [Example 56, (7S)—N-Cyclopropyl-N-[3-(dimethylamino)-3-oxopropyl]-4-[(6-methoxy-1H-indazol-5-yl)amino]-5,6,7,8-tetrahydro[1]benzothieno[2,3-d]pyrimidine-7-carboxamide] is 300 pM; for `CCCOc1cc2[nH]ncc2cc1Nc1ncnc2sc3c(c12)CC[C@H](C(=O)N1CC(O)C1)C3` [Example 159, (3-Hydroxyazetidin-1-yl){(7S)-4-[(6-propoxy-1H-indazol-5-yl)amino]-5,6,7,8-tetrahydro[1]benzothieno[2,3-d]pyrimidin-7-yl}methanone] it is 1900 pM. For `C[C@H](CN)Oc1cc2[nH]ncc2cc1Nc1ncnc2sc3c(c12)CC[C@H](C(=O)N1CCOC[C@@H]1C)C3` [Example 140, {(7S)-4-[(6-{[(2R)-1-Aminopropan-2-yl]oxy}-1H-indazol-5-yl)amino]-5,6,7,8-tetrahydro[1]benzothieno[2,3-d]pyrimidin-7-yl}[(3S)-3-methylmorpholin-4-yl]methanone], the IC50 was found to be 400 pM. The result for `COc1cc2[nH]ncc2cc1Nc1ncnc2sc3c(c12)CC[C@H](C(=O)N(C)C[C@H](C)OC)C3` [Example 282, (7S)-4-[(6-Methoxy-1H-indazol-5-yl)amino]-N-[(2S)-2-methoxypropyl]-N-methyl-5,6,7,8-tetrahydro[1]benzothieno[2,3-d]pyrimidine-7-carboxamide] reads 500 pM; that for `C[C@@H]1CN(C(=O)[C@H]2CCc3c(sc4ncnc(Nc5cc6cn[nH]c6cc5F)c34)C2)C[C@H](C)O1` [Example 221, [(2R,6S)-2,6-Dimethylmorpholin-4-yl]{(7S)-4-[(6-fluoro-1H-indazol-5-yl)amino]-5,6,7,8-tetrahydro[1]benzothieno[2,3-d]pyrimidin-7-yl}methanone], 3800 pM; that for `C[C@H]1COCCN1C(=O)[C@H]1CCc2c(sc3ncnc(Nc4cc5cn[nH]c5cc4OCCN4CCCC4)c23)C1` [Example 118, [(3S)-3-Methylmorpholin-4-yl][(7S)-4-({6-[2-(pyrrolidin-1-yl)ethoxy]-1H-indazol-5-yl}amino)-5,6,7,8-tetrahydro[1]benzothieno[2,3-d]pyrimidin-7-yl]methanone], 92300 pM. In the case of `COc1cc2[nH]ncc2cc1Nc1ncnc2sc3c(c12)CC[C@H](C(=O)N1CC(F)(F)C1)C3` [Example 164, (3,3-difluoroazetidin-1-yl){(7S)-4-[(6-methoxy-1H-indazol-5-yl)amino]-5,6,7,8-tetrahydro[1]benzothieno[2,3-d]pyrimidin-7-yl}methanone], the IC50 stood at 700 pM. Consider `CCCSc1cc2[nH]ncc2cc1Nc1ncnc2sc3c(c12)CC[C@H](C(=O)N(C)C)C3` [Example 192, (7S)—N,N-Dimethyl-4-{[6-(propylsulfanyl)-1H-indazol-5-yl]amino}-5,6,7,8-tetrahydro[1]benzothieno[2,3-d]pyrimidine-7-carboxamide], for which the IC50 came to 2200 pM. In the case of `CN(CCC(F)(F)F)C(=O)[C@H]1CCc2c(sc3ncnc(Nc4ccc5[nH]ncc5c4)c23)C1` [Example 6, (7S)-4-(1H-Indazol-5-ylamino)-N-methyl-N-(3,3,3-trifluoropropyl)-5,6,7,8-tetrahydro[1]benzothieno[2,3-d]pyrimidine-7-carboxamide], the half-maximal inhibitory concentration (IC50) was 11000 pM. The figure for `COc1cc2[nH]ncc2cc1Nc1ncnc2sc3c(c12)CC[C@H](C(=O)N(C)CCC(F)(F)F)C3` [Example 123, (7S)-4-[(6-Methoxy-1H-indazol-5-yl)amino]-N-methyl-N-(3,3,3-trifluoropropyl)-5,6,7,8-tetrahydro[1]benzothieno[2,3-d]pyrimidine-7-carboxamide] is 400 pM; for `COc1cc2[nH]ncc2cc1Nc1ncnc2sc3c(c12)CC[C@H](C(=O)N(C)CCC(C)(C)O)C3` [Example 215, (7S)—N-(3-Hydroxy-3-methylbutyl)-4-[(6-methoxy-1H-indazol-5-yl)amino]-N-methyl-5,6,7,8-tetrahydro[1]benzothieno[2,3-d]pyrimidine-7-carboxamide] it is 1000 pM; for `COc1cc2[nH]ncc2cc1Nc1ncnc2sc3c(c12)CC[C@H](C(=O)N(C)CCN(C)CCN(C)C)C3` [Example 57, (7S)—N-(2-{[2-(Dimethylamino)ethyl](methyl)amino}ethyl)-4-[(6-methoxy-1H-indazol-5-yl)amino]-N-methyl-5,6,7,8-tetrahydro[1]benzothieno[2,3-d]pyrimidine-7-carboxamide] it is 700 pM.

In the case of `CCOc1cc2[nH]ncc2cc1Nc1ncnc2sc3c(c12)CC[C@H](C(=O)N(CCO)CCO)C3` [Example 77, (7S)-4-[(6-Ethoxy-1H-indazol-5-yl)amino]-N,N-bis(2-hydroxyethyl)-5,6,7,8-tetrahydro[1]benzothieno[2,3-d]pyrimidine-7-carboxamide], the IC50 worked out at 100 pM. The result for `O=C([C@H]1CCc2c(sc3ncnc(Nc4cc5cn[nH]c5cc4Cl)c23)C1)N1CCOCC1` [Example 231, {(7S)-4-[(6-Chloro-1H-indazol-5-yl)amino]-5,6,7,8-tetrahydro[1]benzothieno[2,3-d]pyrimidin-7-yl}(morpholin-4-yl)methanone] reads 4000 pM; that for `COC[C@@H](C)N(C)C(=O)[C@H]1CCc2c(sc3ncnc(Nc4cc5cn[nH]c5cc4OC)c23)C1` [Example 284, (7S)-4-[(6-Methoxy-1H-indazol-5-yl)amino]-N-[(2R)-1-methoxypropan-2-yl]-N-methyl-5,6,7,8-tetrahydro[1]benzothieno[2,3-d]pyrimidine-7-carboxamide], 700 pM; that for `COCCN(C)C(=O)[C@H]1CCc2c(sc3ncnc(Nc4cc5cn[nH]c5cc4Br)c23)C1` [Example 238, (7S)-4-[(6-Bromo-1H-indazol-5-yl)amino]-N-(2-methoxyethyl)-N-methyl-5,6,7,8-tetrahydro[1]benzothieno[2,3-d]pyrimidine-7-carboxamide], 3800 pM. As for `C[C@@H]1COCCN1C(=O)[C@H]1CCc2c(sc3ncnc(Nc4cc5cn[nH]c5cc4OC[C@@H](C)N)c23)C1` [Example 150, {(7S)-4-[(6-{[(2R)-2-Aminopropyl]oxy}-1H-indazol-5-yl)amino]-5,6,7,8-tetrahydro[1]benzothieno[2,3-d]pyrimidin-7-yl}[(3R)-3-methylmorpholin-4-yl]methanone], the IC50 is 7300 pM. For `COC(=O)NCCOc1cc2[nH]ncc2cc1Nc1ncnc2sc3c(c12)CC[C@H](C(=O)N(C)C)C3` [Example 258, Methyl {2-[(5-{[(7S)-7-(dimethylcarbamoyl)-5,6,7,8-tetrahydro[1]benzothieno[2,3-d]pyrimidin-4-yl]amino}-1H-indazol-6-yl)oxy]ethyl}carbamate], the IC50 was found to be 400 pM.
